Data: patent EP0516725B1, “NEW USE OF LINOMIDE (R)” (Pharmacia AB (reg.number 556131-9608), priority 1990, dated 1991)

Experiments:
[1] = Half life in humans; settings: human, in vivo
[2] = system: SIVsm; assay: SIVsm infection of cynomolgus monkeys (body weight, CD4 cells, virus isolation, clinical state); settings: result in words
Text: Nine cynomolgus monkeys (Macaca Fascicularis) were used in this study. The mean body mass was 2600 g and the range was 2260 to 2930 g. The monkeys were housed in single cages in a biosafety level three facility. […] The absence of pre-existing retrovirus was further investigated by cocultivating monkey PBMC (=peripheral blood mononuclear cells) with human PHA-stimulated PBMC and testing of culture supernatants for reverse transcriptase activity.
Intraperitoneal treatment with Linomide® or NaCl started four days before challenge with live virus and subsequently every day (not during weekends) subcutaneosly during the time of follow-up. The follow-up is 75 days after live virus challenge. Monkeys L1-3 were treated with a low dose Linomide® 0.3 mg/kg bw x 2 Monkeys L4-6 were treated with a high dose Linomide® 3 mg/kg bw x 2 Monkeys L7-9 were given sodium chloride x 2 All monkeys were challenged with 10-100 animal ID₅₀ of live SIVsm. Animals were sacrificed when they became moribund.
T-lymphocyte subsets in peripheral blood were determined by immunofluorescence as previously described [Putkonen, P., Warstedt, K., Thorstensson, R., Benthin, R., Albert, J., Lundgren, B., Öberg, B., Norrby, E., Biberfeld, G.: Experimental infection of cynomolgus monkeys (Macaca Fascicularis with simian immunodeficiency virus (SIVsm), J. AIDS 1989:2, 359-365]. Peripheral blood samples were incubated with FITC-conjugated anti-CD4 (OKT4, Ortho) and anti-CD8 (Leu2, Becton Dickinson). The samples were analyzed in a Spectrum III flow cytometer (Ortho Diagnostics).

[3] = Half life in cynomolgus monkeys; format: in vivo
[4] = system: spleen T lymphocyte subpopulations; assay: Spleen T lymphocyte subpopulations by direct immunofluorescence after treatment of mice; format: in vivo, C57B1/6 mice; settings: 160 mg/kg/day in the drinking water for 4 days
Experimental: C57B1/6 mice were given Linomide® (160 mg/kg/day) in the drinking water for 4 days. Control animals were given ordinary drinking water. […] 134:3956, 1985] and examined for the expression of cell surface markers by direct immunofluorescence. The following FITC-labeled monoclonal antibodies were used: HO-134 (Thy 1.2), GK 1.5 (CD4) and 19. 178c (CD8) [for reference to antibodies see Kalland, T.: Regulation of NK progenitors: Studies with a novel immunmodulator with distinct effects at the precursor level, J. Immunol. 144:4472-6, 1990]. The number of positive cells was determined by counting 400 cells in an epifluoroscence equipped Leitz microscope. Values represent mean ± SD of three mice.

[5] = Half life in mice; format: in vivo
[6] = system: YAC-1 cells; assay: Spleen NK activity, conventional 51Cr-release assay after treatment of mice; settings: 160 mg/kg/day in the drinking water for four days; for % CYTOTOXICITY: 3 mice
[7] = Half life in rats; settings: rat, in vivo
[8] = spleen cells, mean ± SD of three mice

## CN(C(=O)c1c(O)c2ccccc2n(C)c1=O)c1ccccc1 [Linomide®, N-phenyl-N-methyl-1,2-dihydro-4-hydroxy-1-methyl-2-oxo-quinoline-3-carboxamide]
[1]
  half-life: ~48 h
[2]; all monkeys (low dose, high dose and control), 14 days after challenge
  qualitative virus isolation assay: virus could be isolated from all monkeys
[2]; high dose group (3 mg/kg bw x 2), one monkey
  body weight: dramatic reduction in body weight
[2]; low dose (0.3 mg/kg bw x 2)
  percentage of CD4⁺ cells in peripheral blood: essentially unaltered
[2]; monkeys L1-3, 0.6 mg/kg/day
  body weight: Only a slight weight reduction
[2]; monkeys L1-3 = low dose (0.3 mg/kg bw x 2)
  clinical condition: remained clinically healthy
[3]
  half life: six
[4]; [8]
  % Fluorescent cells CD4: 28±2%
  % Fluorescent cells CD8: 10±3%
  % Fluorescent cells Thy 1.2: 42±5%
[4]; result in words
  distribution of T lymphocyte subpopulations: do not significantly altler the distribution of T lymphocyte subpopulations
[5]
  half life: two
[6]; Effector cell: Target cell ratio 25:1
  % CYTOTOXICITY: 14±4%
[6]; Effector cell: Target cell ratio 50:1
  % CYTOTOXICITY: 20±4%
[6]; Effector cell: Target cell ratio 100:1
  % CYTOTOXICITY: 29±5%
[6]; result in words
  NK activity: significantly enhances NK activity
[7]
  half-life: 24 h
